Laboratory results taken from PubChem BioAssay (NCI).
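96-well plates; 48 h exposure; 5 concentrations. Endpoints by linear interpolation between flanking doses. Not reached: highest tested concentration assigned. TGI is the concentration that stops growth completely.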 Where a SMILES comes first, the peptide text is derived from it. [ ]: non-standard residue; d: D form. The star is where a group is joined. Cbz = O=C(OCc1ccccc1)*; Boc = CC(C)(C)OC(=O)*; Aib = CC(C)(N)C(=O)O; OBn = c1ccc(CO*)cc1; OtBu = CC(C)(C)O*; βAla = NCCC(=O)O

Legend:
Assay in all cases: growth of human tumour cells (NCI), 48 h
[1] = system: A498 renal
[2] = system: NCI-H522 lung
[3] = system: SF-295 CNS
[4] = system: SN12C renal
[5] = system: CAKI-1 renal
[6] = system: UO-31 renal
[7] = system: OVCAR-8 ovarian
[8] = system: HCT-116 colon
[9] = system: NCI-H23 lung
[10] = system: HCT-15 colon

Row | Structure (SMILES) | TGI [1] [µM] | TGI [2] [µM] | TGI [3] [µM] | TGI [4] [µM] | TGI [5] [µM] | TGI [6] [µM] | TGI [7] [µM] | TGI [8] [µM] | TGI [9] [µM] | TGI [10] [µM]
1 | OCCN=C1Nc2ccc(Cl)cc2C(=S)N2CSC[C@@H]12 | > 100 | > 100 | > 100 | > 100 | > 100 | > 100 | > 100 | > 100 | > 100 | > 100
2 | CCN(CC)CCCNc1ccc2nnn3c4ccc(O)cc4c(=O)c1c23 | 24.3 | 24.3 | 22.8 | 20.7 | 17 | 6.27 | 12.9 | 16.3 | 23.5 | 19.4
3 | CC(C)(C)OC(=O)CC(NC(=O)OC(C)(C)C)C(=O)NC(CCCCNC(=O)OCc1ccccc1)C(=O)NC(C)(C)C(=O)NCCC(=O)OCc1ccccc1 (stereo not given) (Boc-D(OtBu)K(Cbz)[Aib][βAla]-OBn; configuration not given here) | > 100 | > 100 | > 100 | > 100 | > 100 | > 100 | > 100 | > 100 | > 100 | > 100
4 | COC(=O)C(C)Sc1nc2cc(Cl)ccc2s1 (stereo not given) | > 100 | > 100 | > 100 | > 100 | > 100 | > 100 | > 100 | > 100 | > 100 | > 100
5 | O=C(NCCO)c1ccc(Cl)cc1 | > 100 | > 100 | > 100 | > 100 | > 100 | > 100 | > 100 | > 100 | > 100 | > 100
6 | O=C(Nc1cccc(-c2cn3ccccc3n2)c1)c1ccncc1 | > 100 | 72.4 | > 100 | > 100 | > 100 | > 100 | > 100 | > 100 | 65 | > 100
7 | O=C(NNC(=S)Nc1ccccc1)c1csc(NC(=S)NC2CCCCC2)n1 | > 100 | > 100 | > 100 | > 100 | > 100 | 79.6 | > 100 | > 100 | > 100 | > 100
8 | COC(=O)c1cncc2c1CC1C3(C(=O)OC)C=NC(C4C(CO)=CCC43)C21C (stereo not given) | > 100 | > 100 | > 100 | > 100 | > 100 | > 100 | > 100 | > 100 | > 100 | > 100
9 | Cc1[nH]c(-c2ccccc2)c(-c2ccc(Cl)cc2)c1C(=O)ONC(=O)c1ccccc1 | 18.4 | 5.42 | 4.74 | 5.21 | 6.88 | 2.89 | 17 | 5.24 | 15.3 | 21.6
10 | C/C=C/[C@H]1O[C@@](OC)([C@@H](C)[C@H](O)[C@H](C)[C@H]2OC(=O)/C(OC)=C/C(C)=C/[C@@H](C)[C@@H](O)[C@@H](C)[C@@H](O)[C@H](C)C/C(C)=C/C=C/[C@@H]2OC)CC(OC2CC(O)C(OC(N)=O)C(C)O2)[C@@H]1C (stereo not given in full) | 21 | 1.42 | < 0.01 | 9.3 | 11.7 | < 0.01 | 17.3 | 0.197 | 21.7 | 5.26
11 | O=c1[nH]nc(Cc2ccc(Cl)cc2)n1O | > 100 | > 100 | > 100 | > 100 | > 100 | > 100 | > 100 | > 100 | > 100 | > 100
12 | CCOP(=O)(OCC)C(Nc1ccc(F)cc1)c1cccc([N+](=O)[O-])c1 (stereo not given) | > 100 | > 100 | > 100 | > 100 | > 100 | > 100 | > 100 | > 100 | > 100 | > 100
13 | CCCCSc1n/c(=C\c2ccc(N(C)C)cc2)c2nnnn12 | > 100 | > 100 | > 100 | > 100 | > 100 | > 100 | > 100 | > 100 | > 100 | > 100
14 | COC(=O)C(COC(=O)/C=C/c1ccc(OC(C)=O)c(OC(C)=O)c1)OC(=O)/C=C/c1ccc(OC(C)=O)c(OC(C)=O)c1 (stereo not given) | 43.1 | 26.7 | 33.2 | 27.8 | 43.1 | 21.8 | 26.4 | 16.3 | 71.8 | > 100
15 | CCOC(=O)c1c(N2CCOCC2)[nH]c(=O)c(C(c2ccc(OC)cc2)c2c(O)c(C(=O)OCC)c(N3CCOCC3)[nH]c2=O)c1O | > 100 | > 100 | > 100 | > 100 | > 100 | > 100 | > 100 | > 100 | > 100 | > 100
16 | CSC(=NC1=NC(C(F)(F)F)(C(F)(F)F)N=C(c2ccccc2)O1)SC | 51.6 | 25 | > 100 | 42.9 | 44.8 | 89.2 | > 100 | 16.3 | 65.5 | 33.5
